# Experiments:
# in vivo = conditions: rat; for AUC(0-inf) / AUC(0-t) / Cmax / half-life / MRT inf / Tmax: male, SD; for AUC(0-inf): AUCINF_pred; for AUC(0-t): AUClast; for half-life: HL_Lambda_z (T1/2); for MRT inf: MRTINF_pred
# Method: Compounds tested were as follows: kinetin (MW=215.21); MTK-115 (MW=243.26); MTK-115D (MW=219.29); MTK-125A (MW=217.27); and MTK-63A (MW=203.24). Formulation concentrations were 0.2 mg/mL for IV delivery; 0.5 mg/mL for PO delivery. Dosing was as follows: IV: 1 mg/kg, 5 mL/kg; PO: 5 mg/kg, 10 mL/kg. Results are as follows:
# Compounds were prepared in a formulation of 4% DMSO, 15% Solutol HS 15, 81% PBS and then administered to male SD rats via oral gavage at 5 mg/kg (n=3 per compound). Plasma draws were taken at 15m, 30m, 1 hr, 2 hr, 4 hr, 8 hr, and 24 hrs, then analyzed by mass spectrometry for presence of the compound. Data were then plotted, and AUC values calculated.
# PINK1 = biological target: T1, PINK1 (Homo sapiens, UniProt Q9BXM7); test: PINK1-specific mitophagy assay (FACS for lysosomal-positive mt-mKeima); type: cell-based
# T1 construct: expressed in transfected cells; host or cells: HeLa cells, retroviral transduction; they also stably express FRB-Fis1, mt-mKeima and Parkin
# T1 sequence (Q9BXM7 111-581 limits assumed): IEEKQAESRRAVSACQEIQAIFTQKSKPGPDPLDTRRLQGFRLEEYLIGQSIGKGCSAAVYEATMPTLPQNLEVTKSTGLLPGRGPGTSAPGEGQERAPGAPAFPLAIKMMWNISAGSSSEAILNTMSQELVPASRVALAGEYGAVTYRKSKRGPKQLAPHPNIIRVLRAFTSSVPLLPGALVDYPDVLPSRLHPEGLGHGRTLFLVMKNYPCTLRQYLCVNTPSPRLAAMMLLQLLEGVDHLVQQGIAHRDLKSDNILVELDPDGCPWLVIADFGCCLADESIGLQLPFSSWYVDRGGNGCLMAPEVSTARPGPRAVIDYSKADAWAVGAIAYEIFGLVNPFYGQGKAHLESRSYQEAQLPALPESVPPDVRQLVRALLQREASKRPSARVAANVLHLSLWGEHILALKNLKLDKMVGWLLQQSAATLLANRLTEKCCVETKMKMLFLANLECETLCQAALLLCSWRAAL
# Excerpt: mt-mKeima was cloned into a pCHAC-MCS-1-IRES-MCS2 vector. PINK1D110-YFP-23FKBP wild-type was cloned into pRetroQ-AcGFP-C1 at NheI/XhoI sites by Gibson assembly kit. The HA-tag was removed, and stop codon introduced. Wild-type HeLa cells stably expressing FRB-Fis1, mt-mKeima, Parkin, and wild-type PINK1D110-YFP-23FKBP were generated using retroviral transduction as described previously. Flag/HA-receptors were stably expressed in these cells by lentivirus transduction as described previously then treated with varying concentrations (see Table 2) of the experimental compounds for 5 days, followed by 1 uM rapalog for 24 h. Cells were then resuspended in sorting buffer (145 mM NaCl, 5 mM KCl, 1.8 mM CaCl2, 0.8 mM MgCl2, 10 mM HEPES, 10 mM glucose, 0.1% BSA) containing […] DAPI. Analysis was performed using Summit software (v6.2.6.16198) on a Beckman Coulter MoFlo Astrios cell sorter. Measurements of lysosomal mt-mKeima were made using dual-excitation ratiometric pH measurements at 488 (pH7) and 561 (pH4) nm lasers with 620/29 nm and 614/20 nm emission filters, respectively. For each sample, 50,000 events were collected and subsequently gated for YFP/mt-mKeima double-positive cells that were DAPI-negative. Data were analysed using FlowJo (v10, Tree Star).
# [1] = tested on: Parkin-expressing HeLa cells with intact wt PINK1; test: Cytotoxicity experiments (DAPI stain, FACS); type: cell-based; conditions: 50 uM, 24 hrs, versus MTK-64, FIG. 6
# Method: Compounds were incubated for 24 hrs at 50 uM in Parkin-expressing HeLa cells with intact wt PINK1. After 24 hrs, cells were DAPI stained according to standard protocols and assayed via FACS.
# [2] = rapalog + experimental compound 12.5 uM
# [3] = rapalog + experimental compound 25 uM
# [4] = rapalog + experimental compound 50 uM
"AUC(0-inf) (in vivo; iv, 1 mg/kg) [ng·h/mL]","AUC(0-t) (in vivo; iv, 1 mg/kg) [ng·h/mL]","Cmax (in vivo; iv, 1 mg/kg) [ng/mL]","half-life (in vivo; iv, 1 mg/kg) [min]","MRT inf (in vivo; iv, 1 mg/kg) [min]","Tmax (in vivo; iv, 1 mg/kg, Tmax) [min]","Tmax (in vivo; po, 5 mg/kg) [min]","AUC(0-inf) (in vivo; po, 5 mg/kg) [ng·h/mL]","AUC(0-t) (in vivo; po, 5 mg/kg) [ng·h/mL]","Cmax (in vivo; po, 5 mg/kg) [ng/mL]","half-life (in vivo; po, 5 mg/kg) [min]","MRT inf (in vivo; po, 5 mg/kg) [min]","Tmax (in vivo; po, 5 mg/kg, Tmax) [min]",percentage of cells undergoing mitophagy (PINK1; [2]) [%],percentage of cells undergoing mitophagy (PINK1; [3]) [%],percentage of cells undergoing mitophagy (PINK1; [4]) [%],"increase in activity (mitophagy) (PINK1; versus MTX-63H (hydrogen instead of methyl at R3), FIG. 5) [%]","oral PK, AUC versus comparator (in vivo; 5 mg/kg)",SMILES,toxicity versus mono-substituted comparator [1]
360,359,1140,7.8,10.2,4.8,18,306,294,305,97.8,145,15,,,,,,C/C=C/CNc1nc(C)nc2[nH]cnc12 [MTK-63A],
470,469,1440,7.2,10.2,4.8,,,,,39.6,182,,16.7,18.1,18.6,~40,,CCCCNc1nc(C)nc2[nH]c(C)nc12 [MTK-115D],
,,,,,,,,,769,,175,,7.26,7.76,8.41,,substantial increase in AUC,C/C=C/CNc1nc(C)nc2[nH]c(C)nc12 [MTK-115A],
57,56.8,176,7.2,10.8,4.8,,130,122,,64.8,79.2,15,,,,,,"c1coc(CNc2ncnc3[nH]cnc23)c1 [kinetin, reference compound]",
,,1850,23.4,24.6,4.8,,5450,5300,1040,69,203,240,13.4,16,18.4,,,Cc1nc(NCc2ccco2)c2nc(C)[nH]c2n1 [MTK-115],substantial decrease in toxicity

# Reference: patent US11414419B2, “Substituted purines for the treatment of neurodegenerative and mitochondrial diseases” (Mitokinin, Inc., priority 2017, dated 2022)
